Test results reported in patent US12594292B2, “Antiviral prodrugs, intermediate-and long-acting formulations and methods” (priority 2022, dated 2026).
Like-named read-outs stand apart in the source and are kept apart here.

How the values were obtained:
Huh7.5 cells [1] = assay: Cytotoxicity in Huh7.5 cells, nuclei count (Example 6); type: cell-based, human
VERO E6 cells [2] = assay: CellTiter-Glo luminescent cell viability assay, Vero E6 (Example 3); type: cell-based
Description: (§1) CellTiter-glo luminescent cell viability assay: Approximately 10^4 Vero E6 cells per well were seeded in opaque walled 96 well cell culture plates and incubated overnight. Compounds or controls were added at the indicated concentrations. […] Viability was calculated compared to untreated controls and CC50 values were calculated using Prism 8.
(§2) Determination of Cytotoxicity: The 50% cytotoxic concentrations (CC50) were determined with Cell Titer Glo (Cat. #G7570, Promega, Madison, WI) according to the manufacturer's instructions. The calculated CC50 values are shown in the foregoing table.
(§3) Relative viability was measured by CellTiter-Glo luminescent cell viability assay, as depicted at FIG. 2.

Caco-2 cells = assay: Cell viability assay CellTiter-Glo, Caco-2 cells (Example 7); conditions: Caco-2 cells, CellTiter-Glo
Calu-3 cells = assay: Cell viability assay CellTiter-Glo, Calu-3 cells (Example 7); conditions: Calu-3 cells, CellTiter-Glo
[3] = tested on: SARS-CoV-2 isolate USA-WA1/2020; assay: SARS-CoV-2 infection in Calu-3 cells, qRT-PCR (Example 7); type: cell-based
[4] = tested on: SARS-CoV-2 isolate USA-WA1/2020; assay: SARS-CoV-2 infection in Vero E6 cells, qRT-PCR (Example 7); type: cell-based; conditions: for Selectivity: CC50/EC50, Vero E6 cells; for EC50 / EC90: Vero E6 cells, MOI 0.01, 48 hours
[5] = tested on: SARS-CoV-2 isolate USA-WA1/2020; assay: SARS-CoV-2 infection in Vero E6 cells, qRT-PCR of Spike RNA (Example 3); type: cell-based
[6] = tested on: SARS-CoV-2 isolate USA-WA1/2020; assay: SARS-CoV-2 infection in PSC-human lung cells, qRT-PCR (Example 7); type: cell-based
HCoV-229E = type: cell-based, human Coronavirus 229E
[7] = tested on: USA WA-01 strain of SARS CoV-2; assay: Anti-coronavirus activity in Vero E6 cells, qPCR of spike RNA (Example 2); type: cell-based
Description: (§4) Ten thousand Vero E6 cells were seeded in 100 microliters of culture medium in 96 well plates. The following day serial two-fold dilutions of antiviral compounds or the DMSO-containing vehicle were added to each well. The USA WA-01 strain of SARS CoV-2 was added to each well at a multiplicity of infection of 0.1 thirty minutes later. Cells were incubated for 48 hours, washed twice in PBS and lysed with TRIzol. RNA was extracted using Directzol micro RNA columns. RNA was made into cDNA and assayed for the SARS CoV-2 spike protein and for a housekeeping gene (RPLPO) RNA by qPCR. Data represents the average of duplicate wells. Cellular cytotoxicity was also measured in VERO E6 cells. […] Cytotoxicity (CC50) was assessed using a commercially available MTT assay.

VERO E6 cells [8] = assay: Cell viability assay CellTiter-Glo, Vero E6 cells (Example 7)
Huh7.5 cells [9] = assay: Cell viability assay CellTiter-Glo, Huh7.5 cells (Example 7)
PSC-human lung cells = assay: Cell viability assay CellTiter-Glo, PSC-human lung cells (Example 7)
VERO E6 cells [10] = assay: Cellular cytotoxicity in Vero E6 cells, MTT assay (Example 2); type: cell-based
Description: as §4

[11] = tested on: SARS-CoV-2 isolate USA-WA1/2020; assay: SARS-CoV-2 infection in Huh7.5 cells, qRT-PCR (Example 7); type: cell-based; conditions: for Selectivity: CC50/EC50, Huh7.5 cells
[12] = tested on: SARS-CoV-2 isolate USA-WA1/2020; assay: SARS-CoV-2 infection in Caco-2 cells, qRT-PCR (Example 7); type: cell-based
human PBMCs = assay: Cytotoxicity (CC50) in human PBMCs; type: cell-based
HIV-1 [13] = conditions: Beadle et al. Antiviral Res. 2019; cited from earlier work
HIV-1 [14] = conditions: for EC50: HIV infected human PBMCs
Procedure: Antiviral activities were determined in HIV infected human PBMCs.

HFF cells = assay: Persistence of TFVpp in HFF cells after a 3 day exposure
Text: HFF cells were exposed to 1 micromolar drug for 3 days. At days 0, 1, 2, 4, 7, 14, 21, and 28, cells were trypsinized, counted, and processed for LC/MS measurement of TFVpp. Data were expressed at ftg/cell. nm=not meaningful; ftg—gemtogram.

[15] = 42 day pharmacokinetic study after a single IM administration in rats, formulations F3, F4, F7, F8; type: in vivo; conditions: for time with plasma levels at a virally significant level: rats, IM, only the 100 mg/kg dose, formulation F3
Description: Comparison of Formulations F3, F4, F7 and F8 following a single IM administration in rats—Groups: Vehicle control, 10 mg/kg, 30 mg/kg and 100 mg/kg of formulations 3, 4, 7, 8.
Procedure: At time zero rats were injected intramuscularly with 100 microliters of vehicle and formulations as noted. […] Blood was obtained at 6, 24 and 48 hours, and at 7, 14, 28, 35 and 42 days and the plasma levels of ODE-Bn-TFV and ODE-TFV (the first metabolite, also an active anti-HIV compound) were determined by LC/MS/MS.
A 42 days pharmacokinetic study of formulations 3, 4, 7, and 8 of this example in rats was conducted. In the study, 100, 30, and 10 mg/kg of each formulation was administered by intramuscular (IM) injection to male Sprague Dawley rates (100 microliters). […] The rats were subjected to twice weekly clinical observations, and weights were collected.

[16] = reported, Siegel et al. 2017; cited from earlier work
[17] = CellTiter-Glo luminescent cell viability assay, Vero E6 (Example 3); type: cell-based; conditions: African green monkey; Vero E6 cells, Cell Titer Glo, 48.5 hours; read-out: CC50
Description: as §1, §2, §3

[18] = after intravenous infusion, reported; cited from earlier work
[19] = Cell viability assay CellTiter-Glo, Caco-2 cells (Example 7); conditions: human
[20] = Cell viability assay CellTiter-Glo, Calu-3 cells (Example 7); conditions: human
VERO E6 cells [21] = assay: Generation of remdesivir triphosphate in Vero E6 cells (LC/MS/MS); type: in vitro ADME; conditions: 1 micromolar drug, up to 48 hours
Description: In this example, Vero E6 cells were plated in 6 well plates at about 3.4×10^5 cells per well in 2 mL of media (DMEM, 10% FBS).
Cells were then incubated at 37° C. for 24 hours. Media was then aspirated and replaced with 2 mL of control media (fresh Dulbecco's Modified Eagle's Medium (DMEM), 10% FBS) or 2 mL of media with drug at a concentration of 1 μM. Cell were incubated with the various drugs for 48 hours. The media was aspirated, the cells rinsed twice with phosphate-buffered saline (PBS), trypsinized for 5 minutes with 1 mL ATV, triturated and removed to a 15 mL centrifuge tube, rinsed with 1 mL PBS, which was also then removed to the 15 mL centrifuge tube, and the cells were triturated again. Cells were counted in a Reichert hemocytometer using two 10 μL samples, and the number of cells in each sample was determined.
Cells were centrifuged at 1200 rpm for 10 minutes, diluent aspirated and the pellet resuspended in 250 μL of methanol/distilled water (70/30) and analyzed by LC/MS/MS. The results, which are depicted at FIG. 3, were in picomoles/10^6 cells and were the average of two or three determinations.

in vitro = conditions: human
Procedure: Cells were infected with 229E for 2 hours followed by treatment with the indicated dose of the indicated drug for 72 hours. The relative CPE was determined by measuring cell viability using an MTT assay. depicts the cytotoxicity in MRC-5 cells incubated in the presence of the indicated drug at the indicated concentration for 72 hours, after which cell viability was measured by the CellTiter-Glo assay. Data points indicate the averages from 3 independent experiments performed in duplicate. Error bars represent the standard error mean (SEM).

[22] = Cellular cytotoxicity in Vero E6 cells, MTT assay (Example 2); type: cell-based; conditions: African green monkey
Description: as §4

[23] = rat, in vivo
Procedure: Maximal volume IM injections of 100 microliters were given at day 0, 30 and 60 to groups of 3 rats. There were 3 groups of control animals who received monthly injections of F3 vehicle. […] Weights were assessed over the 3-month period. […] Because a constant (maximal) IM volume of 100 microliters was given, the initial dose was 90 mg/kg and the two following injections at days 30 and 60 were lower, 62 mg/kg, due to weight increases of the rats.

[24] = design: species or system beagle dogs; conditions: dog, in vivo
Description: Canine Pharmacokinetics of ODE-Bn-TFV in Formulation F3—A 30 day study in beagle dogs was done with 30 mg/kg IM doses of ODE-Bn-TFV in formulation F3.

[25] = Vero E6 cells, MOI 0.01, 48 hours, mean±SD
[26] = Vero E6 cells, MOI 0.1, 48 hours
[27] = Huh7.5 cells, MOI 0.01, 48 hours, qRT-PCR (Example 7)
[28] = Caco-2 cells, MOI 0.01, 48 hours
[29] = Severe acute respiratory syndrome coronavirus 2, Vero C1008

For `CCCCCCCCCCCCCCCCCCOCCOP(=O)(O)OC[C@H]1O[C@@](C#N)(c2ccc3c(N)ncnn23)[C@H](O)[C@@H]1O` [Compound 4c, 2-(Octadecyloxy)ethyl-phospho-RVn], the CC50 (Huh7.5 cells [1]) was > 20000 nM, the CC50 (VERO E6 cells [2]) was > 100000 nM and the CC50 (Caco-2 cells) was > 100000 nM. For the same compound, the CC50 (Calu-3 cells) was 98700 nM, the CC50 (MRC-5 cells) was > 50000 nM and the Selectivity ([3]; CC50/EC50, Calu-3 cells) was 290. For the same compound, the EC90 ([3]; Calu-3 cells, MOI 0.01, 48 hours) was 640 nM, the EC50 ([3]; Calu-3 cells, MOI 0.01, 48 hours, listed as ODE-P-RVn) was 340 nM and the Selectivity [4] was >333. The EC50 [4] was 300 nM, the EC90 [4] was 330 nM and the Selectivity ([5]; CC50/EC50, Vero E6) was >212. For the same compound, the EC50 [5, 25] was 470 ± 180 nM, the EC90 [5, 25] was 1100 ± 800 nM and the “times more active than RDV” value ([5]; based on the EC50 values, Vero E6) was 9.8. For the same compound, the Selectivity ([6]; CC50/EC50, PSC-human lung cells) was >454, the EC90 ([6]; PSC-human lung cells, MOI 0.01, 48 hours) was 700 nM and the EC50 ([6]; PSC-human lung cells, MOI 0.01, 48 hours, listed as ODE-P-RVn) was 220 nM. The EC50 (HCoV-229E) was 410 ± 12 nM, the EC90 (HCoV-229E) was 840 ± 95 nM and the “Selectivity Index” value ([7]; CC50/EC50, Vero E6) was >143. The EC50 [7, 26] was 350 nM, the EC90 [7, 26] was 530 nM and the CC50 (VERO E6 cells [8]) was > 100000 nM. For the same compound, the CC50 (Huh7.5 cells [9]) was > 100000 nM, the CC50 (PSC-human lung cells) was > 100000 nM and the CC50 (VERO E6 cells [10]) was > 50000 nM. For the same compound, the Selectivity [11] was >526, the EC50 [11, 27] was 190 nM and the EC90 [11, 27] was 370 nM. The EC50 ([11]; Huh7.5 cells, MOI 0.01, 48 hours, qRT-PCR (Example 7), listed as ODE-P-RVn) was 190 nM, the Selectivity ([12]; CC50/EC50, Caco-2 cells) was >129 and the EC50 [12, 28] was 770 nM. The EC90 [12, 28] was 1250 nM.

In the case of `CCCCCCCCCCCCCCCCCCOCCOP(=O)(O)CO[C@H](C)Cn1cnc2c(N)ncnc21` [ODE-TFV], the CC50 (human PBMCs) is given as 1280 nM, the EC90 (HIV-1 [13]) is given as 10 nM and the EC50 (HIV-1 [14]) is given as 1.1 nM. For the same compound, the ED90 (HIV-1 [14]; reference line in FIG. 12B) was 6.3 nm/mL, the “T1/2 of TFVpp” value (HFF cells) was 1.2 and the “Tmax of TFVpp” value (HFF cells) was 0 h. For the same compound, the “time with plasma levels at a virally significant level” value [15] was 28 days.

In the case of `CCC(CC)COC(=O)[C@H](C)N[P@](=O)(OC[C@H]1O[C@@](C#N)(c2ccc3c(N)ncnn23)[C@H](O)[C@@H]1O)Oc1ccccc1` [RDV, Remdesivir, reference compound], the “T1/2 ex vivo in human plasma” value [16] is listed as 1.15 h, the CC50 at 48.5 h [17] is listed as > 100000 nM and the “time persisting at virologically significant levels in plasma” value [18] is listed as “less than 2 hours”. The CC50 at 48.5 h [19] was > 100000 nM, the CC50 at 48.5 h [20] was > 100000 nM and the “levels of remdesivir triphosphate (RVn-TP)” value (VERO E6 cells [21]) was “below the level of quantification”. For the same compound, the CC50 (in vitro) was > 50000 nM, the Selectivity [4] was 89.4 and the EC50 [4, 29] was 1130 nM. The EC90 [4, 29] was 7050 nM, the CC50 [22] was > 50000 nM and the Selectivity [11] was 253.

In the case of “Octadecyloxyethyl benzyl tenofovir [ODE-Bn-TFV]”, the CC50 (human PBMCs) is reported as 8720 nM, the EC50 (HIV-1 [14]) is reported as 1.7 nM and the ED90 (HIV-1 [14]; reference line in FIG. 12A) is reported as 10.9 ng/mL. For the same compound, the “Selectivity Index” value (HIV-1 [14]; variation of the diester substituent of ODE-TFV) was 5130, the “T1/2 of TFVpp” value (HFF cells) was 3.7 and the “Tmax of TFVpp” value (HFF cells) was 48 h. The “clinical observations, metabolic panels, CBCs” value [23] was “no clinical observations of significance”, the initial plasma values ([15]; rat, in vivo) was ~100 ng/mL and the “time with plasma levels at a virally significant level” value [15] was 28 days. The adverse effects [24] was “no adverse effects except for some transient swelling at the injection sites”.
